Measurements taken from PubChem BioAssay AID248 (DTP/NCI, 2004).
Several values for one entry are separate records, joined by “and”; a condition that tells them apart may be missing. Equal entries are not always repeated. Toxic doses and inconclusive results are not listed. No stated cut-off is given here; in the data, active means T/C of 150% or more; inactive means T/C below 125%.

System: L1210 leukemia ip in BDF1 mice, survival T/C
Test: NCI In Vivo Anticancer Drug Screen. Data for tumor model L1210 Leukemia (intraperitoneal) in B6D2F1 (BDF1) mice
Details: endpoint: mean survival time, higher = longer survival
Outline: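 Survival endpoint. Drug-treated group vs vehicle group, expressed as T divided by C. Tumor passaged by transplantation.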

[1] = dose: 50.0 mg/kg/injection, schedule: Q01DX009 (ip), vehicle: saline with Tween-80
[2] = dose: 100.0 mg/kg/injection, schedule: Q01DX009 (ip), vehicle: saline with Tween-80
[3] = dose: 100.0 mg/kg/injection, schedule: Q04DX003 (ip), vehicle: saline with Tween-80
[4] = dose: 200.0 mg/kg/injection, schedule: Q04DX003 (ip), vehicle: saline with Tween-80
[5] = dose: 400.0 mg/kg/injection, schedule: Q04DX003 (ip), vehicle: saline with Tween-80
[6] = dose: 100.0 mg/kg/injection, schedule: Q01DX001 (ip), vehicle: saline
[7] = dose: 100.0 mg/kg/injection, schedule: Q04DX003 (ip), vehicle: Klucel (hydroxypropylcellulose) (HPC)
[8] = dose: 200.0 mg/kg/injection, schedule: Q04DX003 (ip), vehicle: Klucel (hydroxypropylcellulose) (HPC)
[9] = dose: 400.0 mg/kg/injection, schedule: Q04DX003 (ip), vehicle: Klucel (hydroxypropylcellulose) (HPC)
[10] = dose: 100.0 mg/kg/injection, schedule: Q01DX009 (ip), vehicle: Klucel (hydroxypropylcellulose) (HPC)
[11] = dose: 200.0 mg/kg/injection, schedule: Q01DX009 (ip), vehicle: Klucel (hydroxypropylcellulose) (HPC)
[12] = dose: 400.0 mg/kg/injection, schedule: Q01DX009 (ip), vehicle: Klucel (hydroxypropylcellulose) (HPC)
[13] = dose: 200.0 mg/kg/injection, schedule: Q01DX001 (ip), vehicle: saline
[14] = dose: 400.0 mg/kg/injection, schedule: Q01DX001 (ip), vehicle: saline
[15] = dose: 100.0 mg/kg/injection, schedule: Q04DX002 (ip), vehicle: saline
[16] = dose: 200.0 mg/kg/injection, schedule: Q04DX002 (ip), vehicle: saline

Measured: T/C

Cc1cccc(OCCOC(=O)Nc2ccc(C)cc2[N+](=O)[O-])c1
inactive: [1] 97 % of control | [2] 87 % of control | [3] 103 % of control | [4] 94 % of control | [5] 99 % of control

O=C(Nc1ccccc1)Nn1cnc2ccccc2c1=O
inactive: [3] 89 % of control | [4] 90 % of control | [5] 88 % of control

CC1COCC(C)N1 (centres undefined)
inactive: dose: 25.0 mg/kg/injection, schedule: Q01DX009 (ip), vehicle: saline 101 % of control | dose: 50.0 mg/kg/injection, schedule: Q01DX009 (ip), vehicle: saline 93 % of control | dose: 100.0 mg/kg/injection, schedule: Q01DX009 (ip), vehicle: saline 90 % of control | dose: 200.0 mg/kg/injection, schedule: Q01DX009 (ip), vehicle: saline 90 % of control | dose: 400.0 mg/kg/injection, schedule: Q01DX009 (ip), vehicle: saline 92 % of control

OC(CN1CCCCC1)c1nc2ccccc2c2ccccc12 (centres undefined)
inactive: dose: 50.0 mg/kg/injection, schedule: Q01DX001 (ip), vehicle: saline 102 % of control | [6] 94 % of control

CC(C)(C)SCCN1C(=O)C2C3CCC(O3)C2C1=O (centres undefined)
inactive: dose: 100.0 mg/kg/injection, schedule: Q04DX002 (ip), vehicle: Klucel (hydroxypropylcellulose) (HPC) 104 % of control | dose: 200.0 mg/kg/injection, schedule: Q04DX002 (ip), vehicle: Klucel (hydroxypropylcellulose) (HPC) 100 % of control | dose: 400.0 mg/kg/injection, schedule: Q04DX002 (ip), vehicle: Klucel (hydroxypropylcellulose) (HPC) 107 % of control

Oc1c(Cl)cc(N=Cc2ccc(N(CCCCl)CCCCl)cc2)cc1Cl
inactive: [7] 101 % of control | [8] 101 % of control | [9] 102 % of control

O=C(Cl)COc1cccc2ccccc12
inactive: [10] 93 % of control | [11] 98 % of control | [12] 101 % of control

[O-][n+]1c(CCl)nc2cccc3c2c1-c1ccccc1-3
inactive: dose: 25.0 mg/kg/injection, schedule: Q01DX009 (ip), vehicle: saline with Tween-80 108 % of control | [1] 110 % of control | dose: 50.0 mg/kg/injection, schedule: Q04DX003 (ip), vehicle: saline with Tween-80 102 % of control | [2] 104 % of control | [3] 107 % of control

CCOC(=O)C(=CNc1cccc2ccncc12)C(=O)OCC
inactive: [3] 104 % of control | [4] 95 % of control | [5] 117 % of control

NC(=O)OCCCCCCOC(N)=O
inactive: [3] 90 % of control | [4] 90 % of control | [5] 87 % of control

CC(=O)c1ccc2c(c1)-c1ccccc1C(=O)C2=O
inactive: [3] 89 % of control | [4] 94 % of control | [5] 91 % of control

COC(=O)c1cc(Cl)ccc1OCC(=O)O
inactive: dose: 100.0 mg/kg/injection, schedule: Q01DX001 (ip), vehicle: Klucel (hydroxypropylcellulose) (HPC) 90 % of control | [7] 102 % of control | dose: 200.0 mg/kg/injection, schedule: Q01DX001 (ip), vehicle: Klucel (hydroxypropylcellulose) (HPC) 93 % of control | [8] 101 % of control | dose: 400.0 mg/kg/injection, schedule: Q01DX001 (ip), vehicle: Klucel (hydroxypropylcellulose) (HPC) 90 % of control | [9] 107 % of control

CCCCCCC(C)O[Si](C)Cc1ccccc1 (centres undefined)
inactive: dose: 100.0 mg/kg/injection, schedule: Q04DX003 (ip), vehicle: other 95 % of control | dose: 200.0 mg/kg/injection, schedule: Q04DX003 (ip), vehicle: other 97 % of control | dose: 400.0 mg/kg/injection, schedule: Q04DX003 (ip), vehicle: other 94 % of control

CC(C)C1=NNC(=O)C1(C)C
inactive: [6] 105 % of control | [13] 108 % of control | [14] 108 % of control

N#CC1C2CCC(C2)C1CCCNCCCC1C2CCC(C2)C1C#N (centres undefined)
inactive: [15] 97 % of control | [16] 104 % of control

C[N+]1(CCl)CCOCC1
inactive: dose: 1.74 mg/kg/injection, schedule: Q01DX009 (ip), vehicle: saline 104 % of control | dose: 2.6 mg/kg/injection, schedule: Q01DX009 (ip), vehicle: saline 104 % of control | dose: 4.0 mg/kg/injection, schedule: Q01DX001 (ip), vehicle: saline 105 % of control | dose: 4.0 mg/kg/injection, schedule: Q01DX009 (ip), vehicle: saline 94 % of control | dose: 4.0 mg/kg/injection, schedule: Q04DX003 (ip), vehicle: saline 100 % of control | dose: 4.0 mg/kg/injection, schedule: Q08DX002 (ip), vehicle: saline 105 % of control | dose: 6.0 mg/kg/injection, schedule: Q01DX001 (ip), vehicle: saline 102 % of control | dose: 6.0 mg/kg/injection, schedule: Q01DX009 (ip), vehicle: saline 102 % of control | dose: 6.0 mg/kg/injection, schedule: Q04DX003 (ip), vehicle: saline 98 % of control | dose: 6.0 mg/kg/injection, schedule: Q08DX002 (ip), vehicle: saline 111 % of control | dose: 9.0 mg/kg/injection, schedule: Q01DX009 (ip), vehicle: saline 100 % of control | dose: 10.0 mg/kg/injection, schedule: Q01DX001 (ip), vehicle: saline 102 % of control | dose: 10.0 mg/kg/injection, schedule: Q04DX003 (ip), vehicle: saline 105 % of control | dose: 10.0 mg/kg/injection, schedule: Q08DX002 (ip), vehicle: saline 104 % of control | dose: 14.0 mg/kg/injection, schedule: Q01DX001 (ip), vehicle: saline 104 % of control | dose: 14.0 mg/kg/injection, schedule: Q04DX003 (ip), vehicle: saline 102 % of control | dose: 14.0 mg/kg/injection, schedule: Q08DX002 (ip), vehicle: saline 107 % of control | dose: 21.0 mg/kg/injection, schedule: Q01DX001 (ip), vehicle: saline 102 % of control | dose: 21.0 mg/kg/injection, schedule: Q04DX003 (ip), vehicle: saline 100 % of control | dose: 21.0 mg/kg/injection, schedule: Q08DX002 (ip), vehicle: saline 100 % of control | dose: 75.0 mg/kg/injection, schedule: Q01DX001 (ip), vehicle: saline 98 % of control | dose: 150.0 mg/kg/injection, schedule: Q01DX001 (ip), vehicle: saline 107 % of control

COC(=O)C(O)c1cccc(OC)c1 (centres undefined)
inactive: [2] 96 % of control | [3] 107 % of control | dose: 200.0 mg/kg/injection, schedule: Q01DX009 (ip), vehicle: saline with Tween-80 93 % of control | [4] 96 % of control | dose: 400.0 mg/kg/injection, schedule: Q01DX009 (ip), vehicle: saline with Tween-80 104 % of control | [5] 105 % of control

CC(=O)CN1C(=O)c2ccccc2C1=O
inactive: [10] 102 % of control | [7] 111 % of control | [11] 108 % of control | [8] 104 % of control | [12] 105 % of control | [9] 98 % of control

C[n+]1c(-c2cc(C(F)(F)F)cc(C(F)(F)F)c2)c2cc(N)ccc2c2ccc(N)cc21
inactive: dose: 100.0 mg/kg/injection, schedule: Q01DX005 (ip), vehicle: water 97 % of control

Cc1cc(NC(=O)c2ccccc2)c(C)cc1N
inactive: dose: 100.0 mg/kg/injection, schedule: Q01DX001 (ip), vehicle: carboxymethylcellulose (CMC) 92 % of control | dose: 200.0 mg/kg/injection, schedule: Q01DX001 (ip), vehicle: carboxymethylcellulose (CMC) 99 % of control | dose: 400.0 mg/kg/injection, schedule: Q01DX001 (ip), vehicle: carboxymethylcellulose (CMC) 101 % of control

C#CCNCc1ccccc1
inactive: [1] 101 % of control and 92 % of control | [6] 100 % of control | [2] 101 % of control and 106 % of control | [15] 94 % of control and 96 % of control and 108 % of control | dose: 100.0 mg/kg/injection, schedule: Q04DX003 (ip), vehicle: saline 98 % of control | [13] 96 % of control | [16] 101 % of control (2×) and 112 % of control | dose: 200.0 mg/kg/injection, schedule: Q04DX003 (ip), vehicle: saline 101 % of control | [14] 98 % of control
